The record followed here is patent US10925876B2, “Methods for using triazolo-pyrazinyl soluble guanylate cyclase activators in fibrotic disorders” (Merck Sharp & Dohme Corp., priority 2016, dated 2021).

The test has as its target T1, sGC α1/β1 heterodimer (Homo sapiens, UniProt Q02108+Q02153).
T1 construct: expressed in transfected cells
T1 sequence (Q02108 1-690): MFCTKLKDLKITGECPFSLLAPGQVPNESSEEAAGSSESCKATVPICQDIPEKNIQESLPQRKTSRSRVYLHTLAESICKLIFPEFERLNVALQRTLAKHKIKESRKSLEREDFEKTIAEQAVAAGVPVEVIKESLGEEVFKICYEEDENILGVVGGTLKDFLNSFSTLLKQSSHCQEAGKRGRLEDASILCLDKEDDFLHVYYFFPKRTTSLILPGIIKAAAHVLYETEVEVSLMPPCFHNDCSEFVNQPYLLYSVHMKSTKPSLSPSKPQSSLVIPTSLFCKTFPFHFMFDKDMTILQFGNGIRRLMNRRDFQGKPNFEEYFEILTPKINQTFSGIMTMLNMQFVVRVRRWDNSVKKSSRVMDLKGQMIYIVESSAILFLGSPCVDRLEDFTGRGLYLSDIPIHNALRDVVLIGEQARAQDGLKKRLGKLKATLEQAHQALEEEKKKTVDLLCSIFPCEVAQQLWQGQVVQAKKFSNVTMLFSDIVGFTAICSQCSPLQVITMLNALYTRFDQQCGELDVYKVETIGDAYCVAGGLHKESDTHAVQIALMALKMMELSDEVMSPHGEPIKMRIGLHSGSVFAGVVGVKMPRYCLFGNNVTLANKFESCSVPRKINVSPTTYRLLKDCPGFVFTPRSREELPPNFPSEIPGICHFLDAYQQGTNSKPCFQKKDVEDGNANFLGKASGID
T1 sequence (Q02153 1-619): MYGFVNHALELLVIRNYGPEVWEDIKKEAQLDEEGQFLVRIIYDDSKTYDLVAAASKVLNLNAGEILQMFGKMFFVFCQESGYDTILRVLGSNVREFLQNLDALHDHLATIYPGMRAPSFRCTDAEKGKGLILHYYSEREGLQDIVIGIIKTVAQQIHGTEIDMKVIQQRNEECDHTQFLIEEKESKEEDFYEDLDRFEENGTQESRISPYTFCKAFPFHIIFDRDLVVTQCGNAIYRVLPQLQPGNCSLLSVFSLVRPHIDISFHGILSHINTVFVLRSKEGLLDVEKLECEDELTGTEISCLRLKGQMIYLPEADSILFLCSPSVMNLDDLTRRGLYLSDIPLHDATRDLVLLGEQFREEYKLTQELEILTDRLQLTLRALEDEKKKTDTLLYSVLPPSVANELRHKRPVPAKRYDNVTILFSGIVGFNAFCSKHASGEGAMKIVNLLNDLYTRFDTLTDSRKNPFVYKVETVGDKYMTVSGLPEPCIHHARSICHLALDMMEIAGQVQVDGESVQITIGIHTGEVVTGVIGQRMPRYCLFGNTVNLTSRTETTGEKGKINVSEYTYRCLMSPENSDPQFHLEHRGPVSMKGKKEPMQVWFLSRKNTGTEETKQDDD
The test is described as follows: Cell-Based sGC Functional Assay (CASA Assay), cGMP generation in CHO-K1/sGC cells. The note with it: maximum cGMP production of Compound A set to 100% activation, read-out: % Act. (percent activation relative to Compound A). The source says: sGC is a heme-containing enzyme that converts GTP to secondary messenger cGMP. Increases in cGMP levels affect several physiological processes including vasorelaxation through multiple downstream pathways. […] Heme-dependent activators (HDAs) preferentially activate sGC containing a ferrous heme group. To determine the effect of sGC activators on enzyme activity, the CASA assay was developed to monitor the generation of cGMP in a cell line that stably expresses the heterodimeric sGC protein.
A CHO-K1 cell line stably expressing the sGC α1/β1 heterodimer was generated using a standard transfection protocol. CHO-K1 cells were transfected with plasmids pIREShyghsGCα1 and pIRESneo-hsGCβ1 simultaneously using FUGENE reagent. Clones that stably express both subunits were selected with hygromycin and neomycin for ˜2 weeks. Clone #7 was chosen for the assay and was designated CHO-K1/sGC. CHO-K1/sGC cells were maintained in F-K12 medium containing 10% heat-inactivated Fetal Bovine Serum (FBS), 100 μg/mL penicillin/streptomycin, 0.5 mg/mL hygromycin and 0.25 mg/mL G418. The cells were then cryopreserved in LN2. On the day of the assay, cells thawed and resuspended in EBSS Assay Buffer (Sigma, E3024) supplemented with 5 mM MgCl2, 10 mM HEPES (4-(2-hydroxyethyl)piperazine-1-ethanesulfonic acid) and 0.05% BSA (bovine serum albumin) (EAB) and cell density was then adjusted to 4×10^5/mL with EAB. IBMX (3-isobutyl-1-methylxanthin, 0.5 mM) was added to inhibit degradation of cGMP. Compounds were diluted from DMSO stock solutions and added to the assay at a final DMSO concentration of 2.5%. Cells were incubated with compounds in the presence and absence of 1 μM of Diethylenetriamine/nitric oxide adduct (DETA-NO; Sigma, 17018) for 1 hr at 37° C. At the end of the incubation period, the reaction was terminated and the cells were lysed with the detection reagents from Cisbio Kits. The level of intracellular cGMP was determined using an HTRF-based assay kit (CisBio, 62GM2PEC), which detects the displacement of a fluorescence labeled cGMP from its specific antibody. The cGMP produced by test compounds was directly compared to the maximum cGMP production (this value was set to equal 100% activation.) of the published sGC-HDA Compound A:
[drawing 298] (Example 1 in WO 2010/065275, published Jun. 10, 2010). The test compounds' activities were then expressed as a percentage of Compound A, the standard in every experiment. This percent activation was calculated either in the presence or absence of DETA-NO which was then plotted. IP and maximum fold induction was derived using ADA analysis software for 4P fit.

Structures are written as SMILES.

Consider `CC(F)(F)c1ccc(C2(C)C(=O)Nc3nc(-c4cn5ncnc5c(CCC(F)(F)C(F)(F)F)n4)nc(N)c32)cn1` (racemic) [Example 16B, 4-amino-5-(6-(1,1-difluoroethyl)pyridin-3-yl)-5-methyl-2-(8-(3,3,4,4,4-pentafluorobutyl)-[1,2,4]triazolo[1,5-a]pyrazin-6-yl)-5H-pyrrolo[2,3-d]pyrimidin-6(7H)-one], for which the Emax is 77%.
On to `Cc1cnc(C2(C3CC3)C(=O)Nc3nc(-c4cn5ncnc5c(CCC(F)(F)C(F)(F)F)n4)nc(N)c32)cn1` (racemic) [Example 21B, 4-amino-5-cyclopropyl-5-(5-methylpyrazin-2-yl)-2-(8-(3,3,4,4,4-pentafluorobutyl)-[1,2,4]triazolo[1,5-a]pyrazin-6-yl)-5H-pyrrolo[2,3-d]pyrimidin-6(7H)-one], for which the Emax was determined as 99%.
Take `CC(F)(F)c1ccc(C2(C)C(=O)Nc3nc(-c4cn5ncnc5c(CCCC(F)(F)F)n4)nc(N)c32)cn1` (racemic) [Example 45B, 4-amino-5-(6-(1,1-difluoroethyl)pyridin-3-yl)-5-methyl-2-(8-(4,4,4-trifluorobutyl)-[1,2,4]triazolo[1,5-a]pyrazin-6-yl)-5H-pyrrolo[2,3-d]pyrimidin-6(7H)-one]: the Emax was 156%.
With `Cc1ccc(C2(C3CC3)C(=O)Nc3nc(-c4cn5ncnc5c(CCCC(F)(F)F)n4)nc(N)c32)nc1` (racemic) [Example 47B, 4-amino-5-cyclopropyl-5-(5-methylpyridin-2-yl)-2-(8-(4,4,4-trifluorobutyl)-[1,2,4]triazolo[1,5-a]pyrazin-6-yl)-5H-pyrrolo[2,3-d]pyrimidin-6(7H)-one] the figure was 114%.
In the case of `Cc1nc(C2(C)C(=O)Nc3nc(-c4cn5ncnc5c(CCCC(F)(F)F)n4)nc(N)c32)ccc1C(F)(F)F` (racemic) [Example 49B, 4-amino-5-methyl-5-(6-methyl-5-(trifluoromethyl)pyridin-2-yl)-2-(8-(4,4,4-trifluorobutyl)-[1,2,4]triazolo[1,5-a]pyrazin-6-yl)-5H-pyrrolo[2,3-d]pyrimidin-6(7H)-one], the Emax is 127%.
With `CC1(c2ncc(C(F)(F)F)cn2)C(=O)Nc2nc(-c3cn4ncnc4c(CCCC(F)(F)F)n3)nc(N)c21` (racemic) [Example 51B, 4-amino-5-methyl-2-(8-(4,4,4-trifluorobutyl)-[1,2,4]triazolo[1,5-a]pyrazin-6-yl)-5-(5-(trifluoromethyl)pyrimidin-2-yl)-5H-pyrrolo[2,3-d]pyrimidin-6(7H)-one] the figure was 144%; with `CCCCc1nc(-c2nc(N)c3c(n2)NC(=O)C3(c2ccc(C)cn2)C2CC2)cn2ncnc12` (racemic) [Example 72B, 4-amino-2-(8-butyl-[1,2,4]triazolo[1,5-a]pyrazin-6-yl)-5-cyclopropyl-5-(5-methylpyridin-2-yl)-5H-pyrrolo[2,3-d]pyrimidin-6(7H)-one], 82%; with `Cc1nnc(C2(C)C(=O)Nc3nc(-c4cn5ncnc5c(CCC(F)(F)C(F)(F)F)n4)nc(N)c32)o1` (single isomer, unassigned) [Example 97B, 4-Amino-5-methyl-5-(5-methyl-1,3,4-oxadiazol-2-yl)-2-(8-(3,3,4,4,4-pentafluorobutyl)-[1,2,4]triazolo[1,5-a]pyrazin-6-yl)-5H-pyrrolo[2,3-d]pyrimidin-6(7H)-one], 106%.
Turning to `Nc1nc(-c2cn3ncnc3c(CCCC(F)(F)F)n2)nc2c1C(c1ncc(C(F)(F)F)cn1)(C1CC1)C(=O)N2` (single isomer, unassigned) [Example 180B, 4-amino-5-cyclopropyl-2-(8-(4,4,4-trifluorobutyl)-[1,2,4]triazolo[1,5-a]pyrazin-6-yl)-5-(5-(trifluoromethyl)pyrimidin-2-yl)-5,7-dihydro-6H-pyrrolo[2,3-d]pyrimidin-6-one], the Emax worked out at 97%.
Turning to `CC1(c2ccc(Cl)c(F)c2)C(=O)Nc2nc(-c3cn4ncnc4c(CCC(F)(F)C(F)(F)F)n3)nc(N)c21` (stereo not drawn) [Example 5B, 4-amino-5-(4-chloro-3-fluorophenyl)-5-methyl-2-(8-(3,3,4,4,4-pentafluorobutyl)-[1,2,4]triazolo[1,5-a]pyrazin-6-yl)-5H-pyrrolo[2,3-d]pyrimidin-6(7H)-one], the Emax was determined as 147%.
To `Nc1nc(-c2cn3ncnc3c(CCC(F)(F)C(F)(F)F)n2)nc2c1C(c1ccc(F)c(F)c1)(C1CC1)C(=O)N2` (stereo not drawn) [Example 6A, 4-amino-5-cyclopropyl-5-(3,4-difluorophenyl)-2-(8-(3,3,4,4,4-pentafluorobutyl)-[1,2,4]triazolo[1,5-a]pyrazin-6-yl)-5H-pyrrolo[2,3-d]pyrimidin-6(7H)-one] belongs 140%.
With `CC1(c2ccc(Cl)cc2)C(=O)Nc2nc(-c3cn4ncnc4c(CCC(F)(F)C(F)(F)F)n3)nc(N)c21` (stereo not drawn) [Example 10A, 4-amino-5-(4-chlorophenyl)-5-methyl-2-(8-(3,3,4,4,4-pentafluorobutyl)-[1,2,4]triazolo[1,5-a]pyrazin-6-yl)-5H-pyrrolo[2,3-d]pyrimidin-6(7H)-one] the figure was 137%; with `CC1(c2cccc(F)c2)C(=O)Nc2nc(-c3cn4ncnc4c(CCC(F)(F)C(F)(F)F)n3)nc(N)c21` (stereo not drawn) [Example 14B, 4-amino-5-(3-fluorophenyl)-5-methyl-2-(8-(3,3,4,4,4-pentafluorobutyl)-[1,2,4]triazolo[1,5-a]pyrazin-6-yl)-5H-pyrrolo[2,3-d]pyrimidin-6(7H)-one], 90%; with `Nc1nc(-c2cn3ncnc3c(CCC(F)(F)C(F)(F)F)n2)nc2c1C(c1ccc(C(F)(F)F)cn1)(C1CC1)C(=O)N2` (stereo not drawn) [Example 15A, 4-amino-5-cyclopropyl-2-(8-(3,3,4,4,4-pentafluorobutyl)-[1,2,4]triazolo[1,5-a]pyrazin-6-yl)-5-(5-(trifluoromethyl)pyridin-2-yl)-5H-pyrrolo[2,3-d]pyrimidin-6(7H)-one], 139%.
With `Cc1ccc(C2(C)C(=O)Nc3nc(-c4cn5ncnc5c(CCC(F)(F)C(F)(F)F)n4)nc(N)c32)nc1` (stereo not drawn) [Example 19B, 4-amino-5-methyl-5-(5-methylpyridin-2-yl)-2-(8-(3,3,4,4,4-pentafluorobutyl)-[1,2,4]triazolo[1,5-a]pyrazin-6-yl)-5H-pyrrolo[2,3-d]pyrimidin-6(7H)-one], the Emax amounted to 71%.
